Measured values: patent US11215617B2, “Treatment of metastatic prostate cancer” (The Regents of the University of California, priority 2013, dated 2022)
Entries after “also recorded” stand apart in the source; their conditions may differ.

Tests used:
[1] = system: prostate cancer cells (C4-2 neo, C4-2 AR-V7, CWR22rv1); experiment: Cell growth assay (cell numbers counted, cell survival rate); type: cell-based; details: 0.5 μM niclosamide, 48 hours, media containing FBS
Experimental: (§1) Total cell numbers were counted and the cell survival rate (%) was calculated. Cell survival rate (%)=(Treatment group cell number/Control group cell number)×100%. […] Total cell numbers were counted after 2, 4, and 7 days. […] The cells were treated as indicated and total cell numbers were counted.

[2] = system: pz-HPV7 normal prostate epithelial cells; experiment: as above; type: cell-based; details: 0.5 μM niclosamide, 48 hours
Experimental: as §1

[3] = system: prostate cancer cells (C4-2 neo, C4-2 AR-V7, CWR22rv1); experiment: Cell death ELISA (apoptosis); type: cell-based; details: 0.5 μM niclosamide, 48 hours
Experimental: (§2) Floating and attached cells were collected and homogenized in 400 μL of incubation buffer. The wells were coated with antihistone antibodies and incubated with the lysates, horseradish peroxidase-conjugated anti-DNA antibodies, and the substrate. Absorbance was measured at 405 nm.

pz-HPV7 cells = experiment: Cell death ELISA (apoptosis); type: cell-based; details: 0.5 μM niclosamide, 48 hours
Experimental: as §2

[4] = system: prostate cancer cells (CWR22rv1, C4-2 AR-V7, C4-2 neo); experiment: Clonogenic assay; type: cell-based; details: 0, 0.5, 1.0 μM niclosamide
C4-2B MR cells [5] = experiment: Clonogenic assay; type: cell-based
AR = experiment: PSA luciferase assay in LNCaP cells, DHT induced; type: cell-based, human; details: niclosamide or enzalutamide with DHT overnight
Text: LNCaP, C4-2 or 293 cells were transfected with pGL3-PSA6.0-Luc, pGL3-AREI/II-Luc reporters along with AR-V7, for example as indicated in the figures, in FBS or CS-FBS condition. Cell lysates were subjected to luciferase assays with the Luciferase Assay System (Promega).

PSA [6] = experiment: PSA ELISA of culture supernatants of C4-2 AR-V7 cells; type: cell-based; details: CS-FBS, 1.0 μM niclosamide overnight
Experimental: PSA levels were measured in the culture supernatants using ELISA (United Biotech, Inc., Mountain View, Calif.) according to the manufacturer's instructions.

PSA [7] = experiment: Western blot of PSA protein in C4-2 AR-V7 cells; type: cell-based; details: CS-FBS, 1.0 μM niclosamide or 20 μM enzalutamide overnight
Experimental: (§4) Whole cell protein extracts were resolved on SDS-PAGE and proteins were transferred to nitrocellulose membranes. […] Tubulin was used to monitor the amounts of samples applied. Following secondary antibody incubation, immunoreactive proteins were visualized with an enhanced chemiluminescence detection system (Millipore, Billerica, Mass.).

[8] = system: recruitment of AR-V7 to PSA promoter; experiment: ChIP assay in C4-2 AR-V7 cells; type: cell-based; details: CS-FBS 3 days, niclosamide (0.5 μM and 1 μM) or 20 μM enzalutamide overnight
Experimental: C4-2 neo and C4-2 AR-V7 cells were treated as noted herein. DNA-AR protein complexes were cross-linked inside the cells by the addition of 1% formaldehyde. Whole-cell extracts were prepared by sonication, and an aliquot of the cross-linked DNA-protein complexes was immunoprecipitated by incubation with the AR-specific antibody (AR-441 obtained from Santa Cruz Biotechnology) overnight at 4° C. with rotation. Chromatin-antibody complexes were isolated from solution by incubation with protein A/G agarose beads for 1 hour at 4° C. with rotation. The bound DNA-protein complexes were washed and eluted from beads with elution buffer (1% SDS and 0.1 mol/L NaHCO3), crosslinking was reversed, and DNA was extracted. The resulting chromatin preparations were analyzed by PCR using primers spanning either the proximal or the distal enhancer AREs of the PSA promoter. Isotype-matched IgG was used as control.

C4-2B MR cells [9] = experiment: Cell growth assay; type: cell-based; details: different concentrations, 48 hours
Experimental: as §1

CWR22rv1 cells [10] = experiment: Cell growth assay; type: cell-based; details: dose and time dependent
Experimental: Total cell numbers were counted after 3 or 5 days. […] Total cell numbers were counted or the cell survival rate (%) was calculated. Cell survival rate (%)=(Treatment group cell number/Control group cell number)×100%.

C4-2B and C4-2B MR cells = experiment: Growth or viability (FIG. 22); type: cell-based
[11] = system: C4-2B and C4-2B AbiR cells; experiment: Growth or viability (FIG. 23); type: cell-based
STAT3 [12] = experiment: STAT3 activation in LNCaP-s17 cells; type: cell-based, human
Experimental: as §4

LNCaP-s17 cells [13] = experiment: Cell growth assay; type: cell-based, human; details: 20 μM enzalutamide and 0.25 μM niclosamide individually or in combination, 2, 4 and 7 days
prostate cancer cells = experiment: Cell growth, migration, invasion and colony formation (FIGS. 16-19); type: cell-based; details: effect appears to be dose dependent
LNCaP-s17 cells [14] = experiment: Cell migration or invasion (FIG. 24); type: cell-based, human
LNCaP-STAT3C cells = experiment: Cell migration or invasion (FIG. 25); type: cell-based, human
CWR22rv1 xenografts = experiment: CWR22rv1 xenograft tumor growth in SCID mice; type: in vivo; details: 3 weeks
Experimental: (§3) CWR22rv1 cells (3 million) were mixed with matrigel (1:1) and injected subcutaneously into the flanks of 6-7 week male SCID mice. […] Tumors were measured using calipers twice a week and tumor volumes were calculated using length×width2/2. Tumor tissues were harvested after 3 weeks of treatment.
Tumors were measured using calipers twice a week and tumor volumes were calculated using length×width2/2. Tumor tissues were harvested after 3 weeks of treatment. The results are depicted in FIGS. 40A-40D.
as §3, with “For the in vivo experiment, CWR22Rv1” for “CWR22rv1”, “(4” for “(3”, “of” for “of 6-7 week”, “treatment. The results are depicted in FIGS. 42A-42D.” for “treatment.”
CWR22Rv1 cells (4 million) were mixed with matrigel (1:1) and injected subcutaneously into the flanks of 6-7 week male SCID mice. […] Tumors were measured using calipers twice a week and tumor volumes were calculated using length×width2/2. Tumor tissues were harvested after 3 weeks of treatment.

STAT3 [15] = details: DU145 cells, shown previously; cited from earlier work
cancer cells = details: some reports suggest; cited from earlier work
normal cells = details: some reports suggest; cited from earlier work
[16] = system: cancer cell metastasis and migration; details: in vitro and in vivo, reported; cited from earlier work
CWR22rv1 cells [17] = experiment: Clonogenic assay
[18] = C4-2B MR cells, 0.5 μM or 1.0 μM niclosamide, 10 μM or 20 μM enzalutamide

For `O=C(Nc1ccc([N+](=O)[O-])cc1Cl)c1cc(Cl)ccc1O` [niclosamide, (5-chloro-N-2chloro-4-nitro-phenyl)-2-hydroxybenzamide], the cell growth [1] was “significantly inhibited cell growth”, the cell growth [2] was “little effects” and the “cell apoptosis (cell death ELISA)” value [3] was “significantly induced cell apoptosis”. For the same molecule, the “cell apoptosis (cell death ELISA)” value (pz-HPV7 cells) was “little effect”, the clonogenic ability [4] was “significantly inhibited clonogenic ability of prostate cancer cells in a dose dependent manner” and the colony formation (C4-2B MR cells [5]; [18]) was “significantly inhibited colony formation; also recorded: inhibited colony formation in a dose dependent manner”. The colony size (C4-2B MR cells [5]; [18]) was “significantly inhibited the colony size”, the colony formation (C4-2B MR cells [5]; C42B MR cells, 0.25 μM niclosamide (FIGS. 37 and 38)) was “significantly inhibits colony formation” and the “enhancement of enzalutamide inhibition of colony formation” value (C4-2B MR cells [5]; C42B MR cells, 0.25 μM niclosamide with 20 μM enzalutamide) was “significantly enhances enzalutamide inhibition of colony formation”. For the same molecule, the “DHT induced AR transcriptional activity” value (AR) was “dramatically inhibited DHT induced AR transcriptional activity”, the “PSA levels (ELISA)” value (PSA [6]) was “significantly inhibited PSA levels” and the “PSA protein expression (western blot)” value (PSA [7]) was “significantly inhibited PSA protein expression”. For the same molecule, the “recruitment of AR-V7 to PSA promoter” value [8] was “significantly reduced recruitment of AR-V7 to PSA promoter”, the “cell growth (total cell numbers)” value (C4-2B MR cells [9]) was “significantly inhibited; also recorded: inhibited C4-2B MR cell growth in a dose dependent manner” and the “enhancement of bicalutamide effects in vitro” value (CWR22rv1 cells [10]) was “significantly enhanced bicalutamide effects”. For the same molecule, the “enhancement of the effect of enzalutamide on growth or viability” value (C4-2B and C4-2B MR cells) was “enhances the effect of enzalutamide”, the “enhancement of the effect of abiraterone on growth or viability” value [11] was “enhances the effect of arbiraterone” and the STAT3 activation (STAT3 [12]) was “significantly inhibited STAT3 activation; also recorded: inhibited constitutively active STAT3 in a dose dependent manner”. The “cell growth, time dependent experiment” value (LNCaP-s17 cells [13]) was “little effect”, the cell growth (prostate cancer cells) was “inhibits” and the colony formation (prostate cancer cells) was “inhibits”. The invasion (prostate cancer cells) was “inhibits”, the migration (prostate cancer cells) was “inhibits” and the “cell migration or invasion” value (LNCaP-s17 cells [14]) was “inhibits cell migration or invasion”. The “cell migration or invasion” value (LNCaP-STAT3C cells) was “inhibits cell migration or invasion”, the “enhancement of bicalutamide effects in vivo” value (CWR22rv1 xenografts; bicalutamide 25 mg/kg p.o. + niclosamide 25 mg/kg i.p., 5 days per week) was “enhanced bicalutamide treatment; also recorded: significantly enhanced bicalutamide effects” and the tumor volume (CWR22rv1 xenografts; enzalutamide 25 mg/kg p.o., niclosamide 25 mg/kg i.p., or both) was “decreased the tumor volume”. For the same molecule, the xenograft tumor growth (CWR22rv1 xenografts; niclosamide 200 mg/kg p.o. B.I.D., 5 days per week) was “significantly inhibited Rv1 xenograft tumor growth”, the STAT3 expression (STAT3 [15]) was “able to inhibit STAT3 expression” and the “activity against cancer cells” value (cancer cells) was “active against cancer cells”. The “viability of normal cells” value (normal cells) was “minimal effects on the viability of normal cells”, the “cancer cell metastasis and migration” value [16] was “inhibit cancer cell metastasis and migration in vitro and in vivo” and the colony formation (CWR22rv1 cells [17]; CWR22rv1 cells, 0, 0.5 μM or 1.0 μM niclosamide) was “inhibited colony formation in a dose dependent manner”. The “enhancement of enzalutamide inhibition of colony formation” value (CWR22rv1 cells [17]; CWR22rv1 cells, 0.25 μM niclosamide with 20 μM enzalutamide) was “significantly enhances enzalutamide inhibition of colony formation”.
